# Read-outs that look alike come from different tables or passages of the source.
# How the values were obtained:
# [1] = male, CD-1 (ICR), mouse, in vivo, iv, 5 mg/kg
# [2] = mouse, in vivo
# [3] = system: Neisseria gonorrhoeae strains
# [4] = thigh infection study, treated groups, relative to day of infection
# EMRSA16 = experiment: MIC, microdilution broth method; type: cell-based, Staphylococcus aureus; details: for MIC, EMRSA16: in µg/mL
# EC12923 = experiment: MIC, microdilution broth method; type: cell-based
structure (smiles),measurement,setting,value
C[C@H]1COc2c(N3CC[C@@H](Nc4ncccn4)C3)c(F)cc3c(=O)c(C(=O)O)cn1c23 [KSN-82-L22],AUGinf,[1],6691 ng·h/mL
same,Liver Blood Flow,[1],10.4%
same,Bioavailability Using AUCinf,"[2]; male, CD-1 (ICR)",49-3%
same,Bioavailability Using AUCo.t,"[2]; male, CD-1 (ICR)",32.0%
same,AUGinf,"[2]; male, CD-1 (ICR), po, 20 mg/kg",13203 ng·h/mL
same,T½,"[2]; po, 20 mg/kg",5-1 h
same,MIC,"[3]; ATCC49226, strain ATCC 49226, PEN-I TET-I",< 0.0312 µg/mL
same,MIC,"[3]; ATCC700825, strain ATCC 700825",50 µg/mL
same,MIC,"[3]; BAA1833, strain BAA-1833, PEN-I TET-I",50 µg/mL
same,MIC,"[3]; BAA1838, strain BAA-1838",50 µg/mL
same,MIC,"[3]; CCUG57595, strain CCUG 57595",50 µg/mL
same,MIC,[3]; CCUG57596,0.125 µg/mL
same,MIC,"[3]; CCUG57597, strain CCUG 57597, FEP-NS FOX-I CAZ-NS CIP-R OFX-R PEN-R TET-R",2 µg/mL
same,MIC,"[3]; CCUG57598, strain CCUG 57598, FOX-R CAZ-NS CRO-NS CIP-R OFX-R PEN-R TET-R",2 µg/mL
same,MIC,"[3]; CCUG57599, strain CCUG 57599, CIP-R OFX-R PEN-R TET-R",0 to 5 µg/mL
same,MIC,"[3]; CCUG57600, strain CCUG 57600, CIP-R OFX-R PEN-R TET-R",1 µg/mL
same,MIC,"[3]; CCUG57601, strain CCUG 57601, PEN-R TET-R",< 0.0312 µg/mL
same,MIC,"[3]; CCUG57602, strain CCUG 57602, PEN-I TET-I",0.0625 µg/mL
same,MIC,"[3]; NCTC13817, strain NCTC 13817, PEN-R TET-I",0 to 5 µg/mL
same,MIC,"[3]; NCTC13818, strain NCTC 13818, CIP-R OFX-R PEN-R TET-R",2 µg/mL
same,MIC,"[3]; NCTC13819, strain NCTC 13819, FEP-NS CAZ-NS CIP-R OFX-R PEN-R TET-I",2 µg/mL
same,MIC,"[3]; NCTC13820, strain NCTC 13820, FEP-NS CFM-NS CAZ-NS CRO-NS CIP-R OFX-R PEN-R TET-R",2 µg/mL
same,MIC,"[3]; NCTC13821, strain NCTC 13821, FEP-NS CFM-NS CAZ-NS CRO-NS CIP-R PEN-I TET-I",2 µg/mL
same,MIC,"[3]; NCTC13822, strain NCTC 13822, FEP-NS CFM-NS CAZ-NS CIP-R OFX-R PEN-R TET-I",2 µg/mL
same,MIC,"[3]; strain 2007NG046, PEN-R CFM-R CPD-R CIP-R",4 µg/mL
same,MIC,"[3]; strain 2008NG057, PEN-R CFM-R CPD-R CIP-R",2 µg/mL
same,MIC,"[3]; strain 2008NG097, PEN-R CFM-R CPD-R CIP-R",2 µg/mL
same,MIC,"[3]; strain 2009NG514, PEN-R CPD-R CIP-R",2 µg/mL
same,MIC,"[3]; strain 2010NG122, PEN-R CFM-R CIP-R",2 µg/mL
same,MIC,"[3]; strain FDA-CDC AR-BANK#0165, CIP-R PEN-I TET-R",2 µg/mL
same,MIC,"[3]; strain FDA-CDC AR-BANK#0166, CIP-R PEN-I TET-R",2 µg/mL
same,MIC,"[3]; strain FDA-CDC AR-BANK#0167, CIP-S PEN-S TET-I",< 0.0312 µg/mL
same,MIC,"[3]; strain FDA-CDC AR-BANK#0168, CIP-R PEN-I TET-R",1 µg/mL
same,MIC,"[3]; strain FDA-CDC AR-BANK#0169, CIP-R PEN-I TET-R",2 µg/mL
same,MIC,"[3]; strain FDA-CDC AR-BANK#0170, CIP-R PEN-I TET-R",2 µg/mL
same,MIC,"[3]; strain FDA-CDC AR-BANK#0171, CIP-R PEN-I TET-R",1 µg/mL
same,MIC,"[3]; strain FDA-CDC AR-BANK#0172, CIP-R PEN-R TET-R",1 µg/mL
same,MIC,"[3]; strain FDA-CDC AR-BANK#0173, CIP-R PEN-R TET-R",2 µg/mL
same,MIC,"[3]; strain FDA-CDC AR-BANK#0174, CIP-R PEN-R TET-R",2 µg/mL
same,MIC,"[3]; strain FDA-CDC AR-BANK#0175, CIP-S PEN-I TET-I",< 0.0312 µg/mL
same,MIC,"[3]; strain FDA-CDC AR-BANK#0176, CIP-R PEN-R TET-R",2 µg/mL
same,MIC,"[3]; strain FDA-CDC AR-BANK#0177, CIP-S PEN-I TET-R",< 0.0312 µg/mL
same,MIC,"[3]; strain FDA-CDC AR-BANK#0178, CIP-R PEN-R TET-R",2 µg/mL
same,MIC,"[3]; strain FDA-CDC AR-BANK#0179, CIP-S PEN-S TET-I",< 0.0312 µg/mL
same,MIC,"[3]; strain FDA-CDC AR-BANK#0180, CIP-R PEN-I TET-R",2 µg/mL
same,MIC,"[3]; strain FDA-CDC AR-BANK#0181, CIP-S PEN-I TET-R",< 0.0312 µg/mL
same,MIC,"[3]; strain FDA-CDC AR-BANK#0182, CIP-R PEN-I TET-R",2 µg/mL
same,MIC,"[3]; strain FDA-CDC AR-BANK#0183, CIP-R PEN-R TET-R",2 µg/mL
same,MIC,"[3]; strain FDA-CDC AR-BANK#0184, CIP-R PEN-R TET-R",2 µg/mL
same,MIC,"[3]; strain FDA-CDC AR-BANK#0185, CIP-R PEN-I TET-R",2 µg/mL
same,MIC,"[3]; strain FDA-CDC AR-BANK#0186, CIP-R PEN-R TET-R",1 µg/mL
same,MIC,"[3]; strain FDA-CDC AR-BANK#0187, CIP-R PEN-I TET-R",2 µg/mL
same,MIC,"[3]; strain FDA-CDC AR-BANK#0188, CIP-R PEN-I TET-R",1 µg/mL
same,MIC,"[3]; strain FDA-CDC AR-BANK#0189, CIP-R PEN-R TET-R",2 µg/mL
same,MIC,"[3]; strain FDA-CDC AR-BANK#0190, CIP-R PEN-R TET-R",2 µg/mL
same,MIC,"[3]; strain FDA-CDC AR-BANK#0191, CIP-R PEN-R TET-R",2 µg/mL
same,MIC,"[3]; strain FDA-CDC AR-BANK#0192, CIP-R PEN-R TET-R",2 µg/mL
same,MIC,"[3]; strain FDA-CDC AR-BANK#0193, CIP-S PEN-R TET-R",< 0.0312 µg/mL
same,MIC,"[3]; strain FDA-CDC AR-BANK#0194, CRO-NS CIP-S PEN-I TET-R",< 0.0312 µg/mL
same,MIC,"[3]; strain FDA-CDC AR-BANK#0195, CIP-R PEN-I TET-R",2 µg/mL
same,MIC,"[3]; strain FDA-CDC AR-BANK#0196, CIP-R PEN-R TET-R",2 µg/mL
same,MIC,"[3]; strain FDA-CDC AR-BANK#0197, CIP-R PEN-I TET-I",2 µg/mL
same,MIC,"[3]; strain FDA-CDC AR-BANK#0198, CIP-R PEN-R TET-R",2 µg/mL
same,MIC,"[3]; strain FDA-CDC AR-BANK#0199, CIP-S PEN-R TET-R",< 0.0312 µg/mL
same,MIC,"[3]; strain FDA-CDC AR-BANK#0200, CIP-R PEN-R TET-R",2 µg/mL
same,MIC,"[3]; strain FDA-CDC AR-BANK#0201, CIP-R PEN-R TET-R",2 µg/mL
same,MIC,"[3]; strain FDA-CDC AR-BANK#0202, CIP-S PEN-S TET-I",< 0.0312 µg/mL
same,MIC,"[3]; strain FDA-CDC AR-BANK#0203, CIP-R PEN-R TET-R",2 µg/mL
same,MIC,"[3]; strain FDA-CDC AR-BANK#0204, CIP-R PEN-I TET-R",2 µg/mL
same,MIC,"[3]; strain FDA-CDC AR-BANK#0205, CIP-R PEN-R TET-R",2 µg/mL
same,MIC,"[3]; strain FDA-CDC AR-BANK#0206, CIP-R PEN-R TET-R",2 µg/mL
same,MIC,"[3]; strain FDA-CDC AR-BANK#0207, CIP-R PEN-R TET-R",2 µg/mL
same,MIC,"[3]; strain FDA-CDC AR-BANK#0208, CIP-R PEN-I TET-R",2 µg/mL
same,MIC,"[3]; strain FDA-CDC AR-BANK#0209, CIP-R PEN-I TET-R",2 µg/mL
same,MIC,"[3]; strain FDA-CDC AR-BANK#0210, CIP-R PEN-I TET-I",2 µg/mL
same,MIC,"[3]; strain FDA-CDC AR-BANK#0211, CIP-R PEN-R TET-R",2 µg/mL
same,MIC,"[3]; strain FDA-CDC AR-BANK#0212, CIP-R PEN-I TET-R",2 µg/mL
same,MIC,"[3]; strain FDA-CDC AR-BANK#0213, CIP-R PEN-I TET-I",1 µg/mL
same,MIC,"[3]; strain FDA-CDC AR-BANK#0214, CIP-R PEN-R TET-R",2 µg/mL
same,MIC,"[3]; strain TCDC-NG08107, PEN-R CFM-R CPD-R CIP-R",2 µg/mL
same,body weights following infection,[4],slightly increased
"Cc1cc(C)nc(N[C@@H]2CCN(c3c(F)cc4c(=O)c(C(=O)O)cn5c4c3OC[C@@H]5C)C2)n1 [KSN-BL7, (S)-10-((R)-3-((4,6-dimethylpyrimidin-2-yl)amino)pyrrolidin-1-yl)-9-fluoro-3-methyl-7-oxo-2,3-dihydro-7H-[1,4]oxazino[2,3,4-ij]quinoline-6-carboxylic acid]","MIC, EMRSA16","EMRSA16; EMRSA16 (Table 16, role of the terminal pyrimidine ring)",0.25-0.5
same,"MIC, EMRSA16","EMRSA16; ESKAPE panel, Gram-positive",0.25
same,MIC,EMRSA16; Staphylococcus aureus,0.25 µg/mL
same,"MIC, EC12923","EC12923; ESKAPE panel, Gram-negative, in µg/mL",1
same,MIC,EC12923; Escherichia coli,1 µg/mL

# — patent publication US11746116B2, “Antibiotic resistance breakers” (KING'S COLLEGE LONDON, priority 2017, dated 2023)
